This is an account of results in the NIST ThermoML archive (doi:10.1021/je8004408).

± gives the expanded uncertainty stated by the source.

A short description of data set [1]: molar enthalpy of vaporization or sublimation. The settings on record: 298.15 K, Drop Microcalorimetry.
The conditions of data set [2]: DTA.
Data set [3] can be described thus: Molar enthalpy of transition or fusion. The following applies: DSC.

Take `O=C1CCCc2c(O)cccc21` [5-hydroxy-1-tetralone]: the molar enthalpy in data set [1] (Crystal) was found to be 28.3 ± 0.717 kcal/mol. For the same compound, the Normal melting temperature in data set [2] (Crystal) was 206.91 ± 0.39 °C. Moreover, in data set [3] (Crystal), the “Molar enthalpy of transition or fusion” value came out at 8.05 ± 0.198 kcal/mol.

For `O=C1CCCc2cc(O)ccc21` [6-hydroxy-1-tetralone], the molar enthalpy in data set [1] (Crystal 2) was determined as 28.1 ± 0.669 kcal/mol. In addition, the Normal melting temperature in data set [2] (Crystal 1) came out at 152.76 ± 0.45 °C. In addition, the Triple point temperature in data set [2] (Crystal 2) came out at 387.46 ± 0.65 K. For the same compound, the figures for the “Molar enthalpy of transition or fusion” value in data set [3] (Crystal 1) and in data set [3] (Crystal 2) were 4.54 ± 0.17 kcal/mol and 3.11 ± 0.598 kcal/mol, respectively.
